Counter-ions that a name gives are not always drawn.

For this experiment, the target named is T1, human PTH1 receptor (Homo sapiens, UniProt Q03431).
T1 sequence (Q03431 27-593): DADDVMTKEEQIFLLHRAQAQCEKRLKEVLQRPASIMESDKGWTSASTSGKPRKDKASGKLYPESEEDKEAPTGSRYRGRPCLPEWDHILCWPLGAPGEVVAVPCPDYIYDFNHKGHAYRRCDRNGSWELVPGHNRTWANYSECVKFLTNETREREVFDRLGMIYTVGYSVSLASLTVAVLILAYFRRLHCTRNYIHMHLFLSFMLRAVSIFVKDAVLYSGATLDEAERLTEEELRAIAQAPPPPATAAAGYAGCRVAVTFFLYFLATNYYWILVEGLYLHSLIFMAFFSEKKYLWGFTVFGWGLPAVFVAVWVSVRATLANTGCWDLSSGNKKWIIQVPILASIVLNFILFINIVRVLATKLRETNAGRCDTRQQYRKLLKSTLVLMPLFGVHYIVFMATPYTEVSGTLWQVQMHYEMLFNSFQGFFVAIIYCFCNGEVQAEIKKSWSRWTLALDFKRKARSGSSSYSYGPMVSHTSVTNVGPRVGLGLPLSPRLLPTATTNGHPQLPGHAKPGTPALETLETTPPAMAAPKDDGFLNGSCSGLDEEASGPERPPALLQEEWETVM
The experiment is described as follows: In vitro cAMP signal activity in HKRK-B7 cells (LLC-PK1 cells overexpressing the human PTH1 receptor). The experiment is classed as cell-based. The settings on record: HKRK-B7 cells, compound at 1×10^−3 M, cAMP produced as percentage of that produced by hPTH(1-34) at 100 nM.

Consider `CCC[C@@H]1CCC[C@H](C2=NC3(CCN(S(=O)(=O)CCc4ccc(N5C(=O)CNC5=O)cc4C)CC3)C(=O)N2)C1` [Compound 949, 3-(3-methyl-4-{2-[4-oxo-2-((1S,3R)-3-propyl-cyclohexyl)-1,3,8-triaza-spiro[4.5]dec-1-ene-8-sulfonyl]-ethyl}-phenyl)-imidazolidine-2,4-dione], for which the “cAMP production activity (%)” value amounted to 92%.

Turning to `CCCS(=O)(=O)CCCCCC1=NC2(CCN(S(=O)(=O)CCc3c(C)cc(N(C)C(N)=O)cc3C)CC2)C(=O)N1` [Compound 1356, 1-[3,5-dimethyl-4-(2-{4-oxo-2-[5-(propane-1-sulfonyl)-pentyl]-1,3,8-triaza-spiro[4.5]dec-1-ene-8-sulfonyl}-ethyl)-phenyl]-1-methyl-urea], the “cAMP production activity (%)” value came out at 14%. Still for that read-out and setting: for `CCCSCCCCCC1=NC2(CCN([S@TB17](=O)(=O)/C=C/c3c(C)cc(N(C)C(N)=O)cc3C)CC2)C(=O)N1` [Compound 1122, 1-(3,5-dimethyl-4-{(E)-2-[4-oxo-2-(5-propylsulfanyl-pentyl)-1,3,8-triaza-spiro[4.5]dec-1-ene-8-sulfonyl]-vinyl}-phenyl)-1-methyl-urea] the value was 150%; for `CCc1cc(NC(C)=O)ccc1CCS(=O)(=O)N1CCC2(CC1)N=C(C1CCC(C)CC1)NC2=O` (stereo not drawn) [Compound 752, N-(3-ethyl-4-{2-[2-(4-methyl-cyclohexyl)-4-oxo-1,3,8-triaza-spiro[4.5]dec-1-ene-8-sulfonyl]-ethyl}-phenyl)-acetamide], 79%. Turning to `Cc1ccccc1CNS(=O)(=O)N1CCC2(CC1)N=C(C1CCC(C)CC1)NC2=O` (stereo not drawn) [Compound 1372, 2-(4-Methyl-cyclohexyl)-4-oxo-1,3,8-triaza-spiro[4.5]dec-1-ene-8-sulfonic acid 2-methyl-benzylamide], the “cAMP production activity (%)” value is given as 36%. Consider `Cc1cc(NS(=O)(=O)N(C)C)ccc1/C=C/S(=O)(=O)N1CCC2(CC1)N=C(C1CCCCC1)NC2=O` [Compound 568, N-{4-[(E)-2-(2-cyclohexyl-4-oxo-1,3,8-triaza-spiro[4.5]dec-1-ene-8-sulfonyl)-vinyl]-3-methyl-phenyl}-N′,N′-dimethyl-sulfamide], for which the “cAMP production activity (%)” value amounted to 39%. Still for that read-out and setting: the value for `Cc1cc(C(=O)N(C)N(C)C)cc(C)c1CCS(=O)(=O)N1CCC2(CC1)N=C(C1CCC(CCC(F)(F)F)CC1)NC2=O` (stereo not drawn) [Compound 787, 3,5-dimethyl-4-(2-{4-oxo-2-[4-(3,3,3-trifluoro-propyl)-cyclohexyl]-1,3,8-triaza-spiro[4.5]dec-1-ene-8-sulfonyl}-ethyl)-benzoic acid trimethylhydrazide] was 81%.

Regarding `O=C1NC([C@H]2C[C@H]3CC[C@@H]2C3)=NC12CCN(S(=O)(=O)c1cccc(Cl)c1)CC2` [Compound 22, 2-(1R,2S,4S)-bicyclo[2.2.1]hept-2-yl-8-(3-chloro-benzenesulfonyl)-1,3,8-triaza-spiro[4.5]dec-1-en-4-one], the “cAMP production activity (%)” value stood at 43%.

Consider `Cc1cc(OC2CCNCC2)ccc1/C=C/S(=O)(=O)N1CCC2(CC1)N=C(c1cccc(OC(F)(F)F)c1)NC2=O` [Compound 1283, 8-{(E)-2-[2-Methyl-4-(piperidin-4-yloxy)-phenyl]-ethenesulfonyl}-2-(3-trifluoromethoxy-phenyl)-1,3,8-triaza-spiro[4.5]dec-1-en-4-one trifluoroacetate], for which the “cAMP production activity (%)” value stood at 18%. Still for that read-out and setting: for `CC(C)(C)OC(=O)N1CCCC(C2=NC3(CCN(S(=O)(=O)c4cccc(Cl)c4)CC3)C(=O)N2)C1` (stereo not drawn) [Compound 18, 3-[8-(3-chloro-benzenesulfonyl)-4-oxo-1,3,8-triaza-spiro[4.5]dec-1-en-2-yl]-piperidine-1-carboxylic acid tert-butyl ester] the value was 44%. In the case of `C#C[C@H]1CC[C@@H](C2=NC3(CCN(S(=O)(=O)CCc4ccc(NC(C)=O)cc4C)CC3)C(=O)N2)CC1` [Compound 1074, N-(4-{2-[2-(4-ethynyl-cyclohexyl)-4-oxo-1,3,8-triaza-spiro[4.5]dec-1-ene-8-sulfonyl]-ethyl}-3-methyl-phenyl)-acetamide], where the note is “0.1 µM”, the “cAMP production activity (%)” value is recorded as 66%.

Regarding `COCCN(C(C)=O)c1ccc(CCS(=O)(=O)N2CCC3(CC2)N=C(C2CCC(CCC(F)(F)F)CC2)NC3=O)c(C)c1` (stereo not drawn) [Compound 755, N-(2-methoxy-ethyl)-N-[3-methyl-4-(2-{4-oxo-2-[4-(3,3,3-trifluoro-propyl)-cyclohexyl]-1,3,8-triaza-spiro[4.5]dec-1-ene-8-sulfonyl}-ethyl)-phenyl]-acetamide], the “cAMP production activity (%)” value came out at 74%. Still for that read-out and setting: the value for `Cc1cc(N2CCNCC2=O)ccc1/C=C/S(=O)(=O)N1CCC2(CC1)N=C(C1CCC(C)CC1)NC2=O` (stereo not drawn) [Compound 1285, 2-(4-methyl-cyclohexyl)-8-{(E)-2-[2-methyl-4-(2-oxo-piperazin-1-yl)-phenyl]-ethenesulfonyl}-1,3,8-triaza-spiro[4.5]dec-1-en-4-one] was 67%; that for `Cc1cc(C(=O)N2CCC(C)(O)CC2)cc(C)c1/C=C/S(=O)(=O)N1CCC2(CC1)N=C(c1ccc(OCC(F)(F)F)c(Cl)c1)NC2=O` [Compound 1216, 2-[3-chloro-4-(2,2,2-trifluoro-ethoxy)-phenyl]-8-{(E)-2-[4-(4-hydroxy-4-methyl-piperidine-1-carbonyl)-2,6-dimethyl-phenyl]-ethenesulfonyl}-1,3,8-triaza-spiro[4.5]dec-1-en-4-one] was 61%; that for `Cc1cc(C(=O)N2CCC(C)(O)CC2)cc(C)c1CCS(=O)(=O)N1CCC2(CC1)N=C(c1ccc(F)c(OC(F)(F)F)c1)NC2=O` [Compound 1335, 2-(4-fluoro-3-trifluoromethoxy-phenyl)-8-{2-[4-(4-hydroxy-4-methyl-piperidine-1-carbonyl)-2,6-dimethyl-phenyl]-ethanesulfonyl}-1,3,8-triaza-spiro[4.5]dec-1-en-4-one] was 97%. Same read-out and setting: for `O=C1NC(C2CCCCC2)=NC12CCN(S(=O)(=O)c1ccc(Cl)s1)CC2` [Compound 55, 8-(5-chloro-thiophene-2-sulfonyl)-2-cyclohexyl-1,3,8-triaza-spiro[4.5]dec-1-en-4-one] the value was 55%; for `Cc1cc(N(C)C(N)=O)cc(C)c1/C=C/S(=O)(=O)N1CCC2(CC1)N=C(CCCCCCCCCC(N)=O)NC2=O` [Compound 1172, 10-(8-{(E)-2-[2,6-Dimethyl-4-(1-methyl-ureido)-phenyl]-ethenesulfonyl}-4-oxo-1,3,8-triaza-spiro[4.5]dec-1-en-2-yl)-decanoic amide], 73%. Same read-out and setting: for `Cc1cc(C(=O)N(C)C)ccc1CCS(=O)(=O)N1CCC2(CC1)N=C(C(C)(C)C)NC2=O` [Compound 74, 4-[2-(2-tert-butyl-4-oxo-1,3,8-triaza-spiro[4.5]dec-1-ene-8-sulfonyl)-ethyl]-3,N,N-trimethyl-benzamide] the value was 48%. With `O=C1NC(C2CCCCC2)=NC12CCN(S(=O)(=O)/C=C/c1ccc(CCO)cc1)CC2` [Compound 187, 2-cyclohexyl-8-{(E)-2-[4-(2-hydroxy-ethyl)-phenyl]-ethenesulfonyl}-1,3,8-triaza-spiro[4.5]dec-1-en-4-one], the “cAMP production activity (%)” value turned out to be 12%. For `Cc1cc(N(C)C(N)=O)cc(C)c1CC1(S(=O)(=O)N2CCC3(CC2)N=C(c2cccc(OC(F)(F)F)c2)NC3=O)CC1` [Compound 1084, 1-(3,5-Dimethyl-4-{1-[4-oxo-2-(3-trifluoromethoxy-phenyl)-1,3,8-triaza-spiro[4.5]dec-1-ene-8-sulfonyl]-cyclopropylmethyl}-phenyl)-1-methyl-urea], the “cAMP production activity (%)” value was found to be 13%. The same measure, in the same setting: the value for `CC(=O)N(CCOCCF)c1cc(C)c(CCS(=O)(=O)N2CCC3(CC2)N=C(C2CCC(CCC(F)(F)F)CC2)NC3=O)c(C)c1` (stereo not drawn) [Compound 766, N-[3,5-dimethyl-4-(2-{4-oxo-2-[4-(3,3,3-trifluoro-propyl)-cyclohexyl]-1,3,8-triaza-spiro[4.5]dec-1-ene-8-sulfonyl}-ethyl)-phenyl]-N-[2-(2-fluoro-ethoxy)-ethyl]-acetamide] was 88%; that for `Cc1cc2ccc1CCS(=O)(=O)N1CCC3(CC1)N=C(NC3=O)c1cc(cc(C(F)(F)F)c1)OCCCCCCCCN(C)C2=O` [Compound 1412] was 7.2%; that for `Cc1cc(N2CCOCC2=O)cc(C)c1CCS(=O)(=O)N1CCC2(CC1)N=C(C1CCC(C)CC1)NC2=O` (stereo not drawn) [Compound 765, 8-{2-[2,6-dimethyl-4-(3-oxo-morpholin-4-yl)-phenyl]-ethanesulfonyl}-2-(4-methyl-cyclohexyl)-1,3,8-triaza-spiro[4.5]dec-1-en-4-one] was 101%.

For the molecule `Cc1cc(N2C(=O)CNC2=O)c(C)cc1/C=C/S(=O)(=O)N1CCC2(CC1)N=C(C1CCC(C)CC1)NC2=O` (stereo not drawn) [Compound 581, 3-(2,5-dimethyl-4-{(E)-2-[2-(4-methyl-cyclohexyl)-4-oxo-1,3,8-triaza-spiro[4.5]dec-1-ene-8-sulfonyl]-vinyl}-phenyl)-imidazolidine-2,4-dione], the “cAMP production activity (%)” value is 75%.
